Counter-ions that a name gives are not always drawn. Like-named read-outs stand apart in the source and are kept apart here.
Legend:
[1] = test system: C33A cervical carcinoma cells; experiment: cells; format: cell-based; settings: Homo sapiens, C-33-A, read-out: IC50 (μM) C33A, Effect on Cancer Cells Viability
Description: (§1) […]. […] […]. The total dimethyl sulfoxide on the cells was 1%. […] […].
(§2) As depicted in Table 4, these compounds were efficient in decreasing cellular ATP levels in HI 299 and C33A cancer cell lines. Nevertheless, these compounds are believed to have utility in the in vivo methods of the invention, i.e., treatment and prevention of cancer and viral infections, respectively. It should be noted that, although this cell-based assay is believed to be indicative of anti-oncogenic activity in vivo, it is not the only useful assay for evaluating the anti-oncogenic activity of Triheterocyclic Compounds of the invention. In addition, the anti-viral and other biological activity of compounds of the invention can be determined and evaluated in other assay systems known to the skilled artisan.

[2] = test system: H1299 human non-small cell lung cancer cells; experiment: Cell viability by cellular ATP levels (ViaLight), H1299 cells; format: cell-based; settings: Homo sapiens
Description: as §1, §2

[3] = C33A, cellular ATP levels as described in Example 2
[4] = NCI-H1299, H1299, cellular ATP levels as described in Example 2, read-out: IC50 (μM) H1299, Effect on Cancer Cells Viability

Row | IC50 [1, 3] [µM] | IC50 [2, 4] [µM] | SMILES | IC50 [1] [µM] | IC50 ([2]; NCI-H1299, read-out: IC50 (μM) H1299, Effect on Cancer Cells Viability) [µM]
1 | 2.21 | 4.43 | COC1=C(CO)C(c2[nH]c3ccccc3c2CNCCO)=N/C1=C\c1[nH]c(C)cc1C [Compound 9, 2-({2-[5-(3,5-Dimethyl-1H-pyrrol-2-ylmethylene)-3-hydroxymethyl-4-methoxy-5H-pyrrol-2-yl]-1H-indol-3-ylmethyl}-amino)-ethanol] |  | 
2 | 1.29 | 1.35 | COC1=CC(c2[nH]c3ccccc3c2CO)=N/C1=C\c1[nH]c(C)cc1C [Compound 37] |  | 
3 | 2.24 | 2.26 | COC1=CC(c2cc3cc(OC)c(OC)cc3n2C(=O)OC(C)(C)C)=N/C1=C\c1[nH]c(C)cc1C [Compound 5, 2-[5-(3,5-Dimethyl-1H-pyrrol-2-ylmethylene)-4-methoxy-5H-pyrrol-2-yl]-5,6-dimethoxy-indole-1-carboxylic acid tert-butyl ester] |  | 
4 | 5.6 | 5.84 | COC1=CC(c2cc3c(O)cccc3[nH]2)=N/C1=C\c1[nH]c(C)cc1C [Compound 59, 2-[5-(3,5-Dimethyl-1H-pyrrol-2-ylmethylene)-4-methoxy-5H-pyrrol-2-yl]-1H-indol-4-ol] |  | 
5 | 0.261 | 0.245 | Cc1cc(C)c(/C=C2\N=C(c3cc4ccc(Cl)cc4[nH]3)C=C2OC(C)C)[nH]1 [Compound 46, 6-Chloro-2-[5-(3,5-dimethyl-1H-pyrrol-2-ylmethylene)-4-isopropoxy-5H-pyrrol-2-yl]-1H-indole] |  | 
6 |  |  | COC(=O)CCc1c(C)[nH]c(/C=C2\N=C(c3cc4ccccc4[nH]3)C=C2OC)c1C [Compound 63, 3-{5-[5-(1H-Indol-2-yl)-3-methoxy-pyrrol-2-ylidenemethyl]-2,4-dimethyl-1H-pyrrol-3-yI}-propionic acid methyl ester] | 0.548 | 0.753
7 | 1.26 | 1.28 | COC1=CC(c2cc3ccccc3n2C(=O)OCC(O)CO)=N/C1=C\c1[nH]c(C)cc1C (stereo not shown) [Compound 44, 2-[5-(3,5-Dimethyl-1H-pyrrol-2-ylmethylene)-4-methoxy-5H-pyrrol-2-yl]-indole-1-carboxylic acid 2,3-dihydroxy-propyl ester] |  | 
8 | 14.2 | 13.3 | COC1=CC(c2cc3ccccc3n2COC(=O)C(C)(C)C)=N/C1=C\c1[nH]c(C)cc1C [Compound 64, 2,2-Dimethyl-propionic acid 2-[5-(3,5-dimethyl-1H-pyrrol-2-ylmethylene)-4-methoxy-5H-pyrrol-2-yl]-indol-1-ylmethyl ester] |  | 
9 | 7.17 | 8.46 | COC1=CC(c2cc3ccccc3n2CCO)=N/C1=C\c1[nH]c(C)cc1C [Compound 40, 2-{2-[5-(3,5-Dimethyl-1H-pyrrol-2-ylmethylene)-4-methoxy-5H-pyrrol-2-yl]-indol-1-yl}-ethanol] |  | 
10 | 0.19 | 0.267 | COC1=CC(c2[nH]c3ccccc3c2CN2CCOCC2)=N/C1=C\c1[nH]c(C)cc1C [Compound 6, 2-[5-(3,5-Dimethyl-1H-pyrrol-2-ylmethylene)-4-methoxy-5H-pyrrol-2-yl]-3-morpholin-4-ylmethyl-1H-indole] |  | 
11 | 0.226 | 0.342 | Cc1cc(C)c(/C=C2\N=C(c3cc4c(OC(=O)OC(C)(C)C)cccc4[nH]3)C=C2OC(C)C)[nH]1 [Compound 38, Carbonic acid tert-butyl ester 2-[5-(3,5-dimethyl-1H-pyrrol-2-ylmethylene)-4-isopropoxy-5H-pyrrol-2-yl]-1H-indol-4-yl ester] |  | 
12 | 0.509 | 1.21 | Cc1cc(C)c(/C=C2\N=C(c3cc4ccccc4[nH]3)C=C2O)[nH]1 [Compound 50, 2-(3,5-Dimethyl-1H-pyrrol-2-ylmethylene)-5-(1H-indol-2-yl)-2H-pyrrol-3-ol] |  | 
13 | 0.25 | 0.215 | COC1=CC(c2cc3cc(OC)c(OC)cc3[nH]2)=N/C1=C\c1[nH]c(C)cc1C [Compound 4, 2-[5-(3,5-Dimethyl-1H-pyrrol-2-ylmethylene)-4-methoxy-5H-pyrrol-2-yl]-5,6-dimethoxy-1H-indole] |  | 
14 | 0.44 | 0.717 | C=CCNCc1c(C2=N/C(=C\c3[nH]c(C)cc3C)C(OC)=C2CO)[nH]c2ccccc12 [Compound 13, [2-(3-Allylaminomethyl-1H-indol-2-yl)-5-(3,5-dimethyl-1H-pyrrol-2-ylmethylene)-4-methoxy-5H-pyrrol-3-yl]-methanol] |  | 
15 | 5.69 | 5.37 | COC1=CC(c2[nH]c3ccccc3c2I)=N/C1=C\c1[nH]c(C)c(I)c1C [Compound 17, 3-Iodo-2-[5-(4-iodo-3,5-dimethyl-1H-pyrrol-2-ylmethylene)-4-methoxy-5H-pyrrol-2-yl]-1H-indole] |  | 
16 | 0.196 | 0.298 | COC1=CC(c2cc3ccccc3n2C(=O)c2ccccc2)=N/C1=C/c1[nH]c(C)cc1C [Compound 43, {2-[5-(3,5-Dimethyl-1H-pyrrol-2-ylmethylene)-4-methoxy-5H-pyrrol-2-yl]-indol-1-yl}-phenyl-methanone] |  | 
17 | 7.23 | 7.98 | CCOC(=O)C(=O)c1c(C)[nH]c(/C=C2\N=C(c3[nH]c4ccccc4c3C(=O)C(=O)OCC)C=C2OC)c1C [Compound 20, {2-[5-(4-Ethoxyoxalyl-3,5-dimethyl-1H-pyrrol-2-ylmethylene)-4-methoxy-5H-pyrrol-2-yl]-1H-indol-3-yl}-oxo-acetic acid ethyl ester] |  | 
18 | 3.75 | 5.9 | Cc1cc(C)c(/C=C2\N=C(c3cc4c(O)cccc4[nH]3)C=C2OC(C)C)[nH]1 [Compound 57, 2-[5-(3,5-Dimethyl-1H-pyrrol-2-ylmethylene)-4-isopropoxy-5H-pyrrol-2-yl]-1H-indol-4-ol] |  | 
19 | 1.44 | 0.935 | COC1=CC(c2cc3cc(OC)ccc3[nH]2)=N/C1=C\c1[nH]c(C)cc1C [Compound 15, 2-[5-(3,5-Dimethyl-1H-pyrrol-2-ylmethylene)-4-methoxy-5H-pyrrol-2-yl]-5-methoxy-1H-indole] |  | 
20 | 1.11 | 1.04 | COC1=CC(c2cc3ccccc3n2C(=O)Nc2ccc(N(C)C)cc2)=N/C1=C\c1[nH]c(C)cc1C [Compound 52, 2-[5-(3,5-Dimethyl-1H-pyrrol-2-ylmethylene)-4-methoxy-5H-pyrrol-2-yl]-indole-1-carboxylic acid (4-dimethylamino-phenyl)-amide] |  | 
21 | 0.583 | 0.494 | COC1=CC(c2cc3c(OC(=O)OC(C)(C)C)cccc3[nH]2)=N/C1=C\c1[nH]c(C)cc1C [Compound 36, Carbonic acid tert-butyl ester 2-[5-(3,5-dimethyl-1H-pyrrol-2-ylmethylene)-4-methoxy-5H-pyrrol-2-yl]-1H-indol-4-yl ester] |  | 
22 | 0.358 | 0.458 | Cc1cc(C)c(/C=C2/N=C(c3cc4cc(F)ccc4[nH]3)C=C2OC(C)C)[nH]1 [Compound 42, 2-[5-(3,5-Dimethyl-1H-pyrrol-2-ylmeythylene)-4-isopropoxy-5H-pyrrol-2-yl]-5-fluoro-1H-indole] |  | 
23 | 0.65 | 0.53 | COC1=CC(c2cc3ccccc3[nH]2)=N/C1=C\c1[nH]c(C)c(I)c1C [Compound 2, 2-[5-(4-Iodo-3,5-dimethyl-1H-pyrrol-2-ylmethylene)-4-methoxy-5H-pyrrol-2-yl]-1H-indole] |  | 
24 | 5.97 | 7.89 | COC1=CC(c2cc3ccccc3n2CCOS(=O)(=O)O)=N/C1=C\c1[nH]c(C)cc1C [Compound 65, Sodium salt of Sulfuric acid mono-(2-{2-[5-(3,5-dimethyl-1H-pyrrol-2-ylmethylene)-4-methoxy-5H-pyrrol-2-yl]-indol-1-yl}-ethyl) ester] |  | 
25 | 1.79 | 3.35 | COC1=CC(c2cc3ccccc3[nH]2)=N/C1=C\c1[nH]c(C)c(CCCO)c1C [Compound 41, 3-{5-[5-(1H-indol-2-yl)-3-methoxy-pyrrol-2-ylidenemethyl]-2,4-dimethyl-1H-pyrrol-3-yl}-propan-1-ol] |  | 
26 | 0.307 | 0.983 | COC1=C(CO)C(c2[nH]c3ccccc3c2CNC(C)C)=N/C1=C\c1[nH]c(C)cc1C [Compound 11, {5-(3,5-Dimethyl-1H-pyrrol-2-ylmethylene)-2-[3-(isopropylamino-methyl)-1H-indol-2-yl]-4-methoxy-5H-pyrrol-3-yl}-methanol] |  | 
27 | 1.76 | 1.88 | COC1=CC(c2[nH]c3ccccc3c2CN2CCN(c3ccccc3)CC2)=N/C1=C\c1[nH]c(C)cc1C [Compound 8, 2-[5-(3,5-Dimethyl-1H-pyrrol-2-ylmethylene)-4-methoxy-5H-pyrrol-2-yl]-3-(4-phenyl-piperazin-1-ylmethyl)-1H-indole] |  | 
28 | 2.95 | 5.67 | COC1=CC(c2cc3ccccc3n2C(=O)N(C)C)=N/C1=C\c1[nH]c(C)cc1C [Compound 39, 2-[5-(3,5-Dimethyl-1H-pyrrol-2-ylmethylene)-4-methoxy-5H-pyrrol-2-yl]-indole-1-carboxylic acid dimethylamide] |  | 
29 | 11.1 | 50 | COC1=CC(c2[nH]c3ccccc3c2C(=O)NCCCO)=N/C1=C\c1[nH]c(C)cc1C [Compound 48, 2-[5-(3,5-Dimethyl-1H-pyrrol-2-ylmethylene)-4-methoxy-5H-pyrrol-2-yl]-1H-indole-3-carboxylic acid (3-hydroxy-propyl)-amide] |  | 

— US20050267073A1, “Triheterocyclic compounds, compositions, and methods for treating cancer or viral diseases” (priority 2004, published 2005)
